In one data set the target is T1, SLC19A3 (Homo sapiens, UniProt Q9BZV2).
T1 construct: expressed in transfected cells
As to the kind of experiment: Uptake ratio screen, SLC19A3-overexpressing HEK293 over empty vector cells. It is filed as cell-based. Particulars: 2.5 μM, 2 min. The procedure:
(§1) Typically discussed substrates of the proton organic-cation antiporter ([14]) are highlighted in dark green in Figure 1.
In preparation for transport experiments, 24-well plates were pre-coated with poly-D-lysine (Sigma-Aldrich) and 300,000 cells were plated per well and incubated for 48 h. Firstly, the 24-well plate was placed on a heating plate at 37 °C, and the cells were washed with 37 °C HBSS^+ buffer (Hank’s balanced salt solution supplemented with 10 mM Hepes and adjusted to pH 7.4; Thermo Fisher Scientific). The substance-of-interest, which was diluted in 37 °C HBSS^+ to a desired concentration, was added to the cells for exactly 2 min. […] For variations in seeded cell numbers between the cell lines, several wells were lysed in RIPA buffer and used for total protein quantification using a bicinchoninic assay ([74]) and bovine serum albumin as calibration.
The intracellular drug concentrations after transport experiments were analyzed by high-performance liquid chromatography coupled to tandem mass spectrometry analysis. […] After separation, the detection of substances was performed with an API 4000 tandem mass spectrometer (AB SCIEX, https://sciex.com/support/software-support/software-downloads), followed by quantification of results with the Analyst software (AB SCIEX, version 1.6.2). […]

In a further data set the target is SLC35F3 (Homo sapiens, UniProt Q8IY50).
Sequence of SLC35F3 (Q8IY50 whole entry): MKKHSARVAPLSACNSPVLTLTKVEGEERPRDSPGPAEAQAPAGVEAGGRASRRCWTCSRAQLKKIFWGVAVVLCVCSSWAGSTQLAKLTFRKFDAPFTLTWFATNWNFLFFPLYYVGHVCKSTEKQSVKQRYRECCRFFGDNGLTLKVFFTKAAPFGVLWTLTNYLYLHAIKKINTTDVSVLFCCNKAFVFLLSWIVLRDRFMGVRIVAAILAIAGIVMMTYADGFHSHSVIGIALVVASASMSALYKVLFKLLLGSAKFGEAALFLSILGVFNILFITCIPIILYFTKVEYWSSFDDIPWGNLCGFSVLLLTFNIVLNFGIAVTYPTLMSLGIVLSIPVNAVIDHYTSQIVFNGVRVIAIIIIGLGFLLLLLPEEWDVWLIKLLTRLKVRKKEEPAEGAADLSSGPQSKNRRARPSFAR
For data set [1], the target named is T2, SLC35F4 (Homo sapiens, UniProt A4IF30).
T2 sequence (A4IF30 1-521): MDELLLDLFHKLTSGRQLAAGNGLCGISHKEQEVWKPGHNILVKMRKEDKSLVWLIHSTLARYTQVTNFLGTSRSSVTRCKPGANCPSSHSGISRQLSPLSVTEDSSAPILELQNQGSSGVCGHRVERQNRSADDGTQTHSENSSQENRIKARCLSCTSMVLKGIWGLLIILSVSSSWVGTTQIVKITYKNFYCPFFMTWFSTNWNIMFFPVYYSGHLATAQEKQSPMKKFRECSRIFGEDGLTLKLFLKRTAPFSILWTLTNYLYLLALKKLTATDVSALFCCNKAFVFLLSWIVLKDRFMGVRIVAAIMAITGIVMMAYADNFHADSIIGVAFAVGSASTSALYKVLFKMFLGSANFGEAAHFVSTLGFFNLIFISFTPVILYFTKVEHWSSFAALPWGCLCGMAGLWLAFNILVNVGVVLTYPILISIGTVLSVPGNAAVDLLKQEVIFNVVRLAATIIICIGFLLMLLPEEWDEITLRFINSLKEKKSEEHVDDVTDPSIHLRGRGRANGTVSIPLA

For the next data set, the target named is SLC44A1 (Homo sapiens, UniProt Q8WWI5).
Sequence of SLC44A1 (Q8WWI5 whole entry): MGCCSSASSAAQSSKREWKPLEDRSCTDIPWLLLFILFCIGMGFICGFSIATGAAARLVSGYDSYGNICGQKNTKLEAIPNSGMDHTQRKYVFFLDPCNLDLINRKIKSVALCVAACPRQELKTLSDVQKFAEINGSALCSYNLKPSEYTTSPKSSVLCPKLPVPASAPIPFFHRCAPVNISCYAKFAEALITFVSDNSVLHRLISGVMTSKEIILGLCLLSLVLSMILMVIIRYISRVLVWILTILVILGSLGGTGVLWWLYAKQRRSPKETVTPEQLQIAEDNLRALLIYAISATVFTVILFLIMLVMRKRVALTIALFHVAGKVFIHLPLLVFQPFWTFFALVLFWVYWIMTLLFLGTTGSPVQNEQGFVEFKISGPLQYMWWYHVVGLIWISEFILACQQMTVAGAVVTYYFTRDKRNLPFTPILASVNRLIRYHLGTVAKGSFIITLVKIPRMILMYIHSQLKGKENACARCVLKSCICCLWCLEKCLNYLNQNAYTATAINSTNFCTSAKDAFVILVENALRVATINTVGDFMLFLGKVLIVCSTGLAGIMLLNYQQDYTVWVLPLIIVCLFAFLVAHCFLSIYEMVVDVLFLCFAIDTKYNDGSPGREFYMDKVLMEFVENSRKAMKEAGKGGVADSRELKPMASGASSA
The target of another data set is T3, SLC35E4 (Homo sapiens, UniProt Q6ICL7).
T3 sequence (Q6ICL7 1-350): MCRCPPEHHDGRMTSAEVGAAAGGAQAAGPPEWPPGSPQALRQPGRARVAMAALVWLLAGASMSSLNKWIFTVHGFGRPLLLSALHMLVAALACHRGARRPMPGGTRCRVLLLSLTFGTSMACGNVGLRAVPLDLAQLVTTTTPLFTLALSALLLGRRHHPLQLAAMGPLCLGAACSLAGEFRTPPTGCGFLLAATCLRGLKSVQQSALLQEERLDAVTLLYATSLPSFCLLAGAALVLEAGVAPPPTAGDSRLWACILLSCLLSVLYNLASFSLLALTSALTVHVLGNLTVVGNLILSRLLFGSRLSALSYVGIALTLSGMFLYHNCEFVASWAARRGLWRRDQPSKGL
The data set is described as follows: Uptake ratio screen, SLC35E4-overexpressing HEK293 over empty vector cells. The note with it: 2.5 μM, 2 min. In kind it is cell-based. More on the design: by amplifying the entire gene-of-interest within the HEK293 genome via a long-range PCR. On the procedure:
as §1
(§2) In preparation for transport experiments, 24-well plates were pre-coated with poly-D-lysine (Sigma-Aldrich) and 300,000 cells were plated per well and incubated for 48 h. Firstly, the 24-well plate was placed on a heating plate at 37 °C, and the cells were washed with 37 °C HBSS^+ buffer (Hank’s balanced salt solution supplemented with 10 mM Hepes and adjusted to pH 7.4; Thermo Fisher Scientific). The substance-of-interest, which was diluted in 37 °C HBSS^+ to a desired concentration, was added to the cells for exactly 2 min. […] The uptake was stopped with ice-cold HBSS^+, and the 24-well plate was removed from the heating plate. The cells were washed twice with the cold HBSS^+ before they were lysed for 15 min with 80% (v/v) acetonitrile containing the respective internal standard for mass spectrometry. For variations in seeded cell numbers between the cell lines, several wells were lysed in RIPA buffer and used for total protein quantification using a bicinchoninic assay ([74]) and bovine serum albumin as calibration.
The intracellular drug concentrations after transport experiments were analyzed by high-performance liquid chromatography coupled to tandem mass spectrometry analysis. The HPLC consisted of a Shimadzu Nexera HPLC System with a SIL-30AC autosampler, a LC-30AD pump, a CTO-20AC column oven, and a CBM-20A controller (Shimadzu). The reverse-phase chromatography of compounds was accomplished with a Brownlee SPP RP-Amide column with 4.6 × 100 mm inner dimensions, a particle size of 2.7 μm, and a preceding Phenomenex C-18 guard column. […] After separation, the detection of substances was performed with an API 4000 tandem mass spectrometer (AB SCIEX, https://sciex.com/support/software-support/software-downloads), followed by quantification of results with the Analyst software (AB SCIEX, version 1.6.2). […]
(§3) Transport-mediated net uptake was determined as fold-increase of transporter-overexpressing cells over empty vector–transfected control cells.

Data set [2] addresses T2, SLC35F4. The data set is described as follows: Uptake ratio screen, SLC35F4-overexpressing HEK293 over empty vector cells. In kind it is cell-based. More on the design: by amplifying the entire gene-of-interest within the HEK293 genome via a long-range PCR. The note with it: 2.5 μM, 2 min. The procedure: as §1, §2
(§4) The intracellular drug concentrations after transport experiments were analyzed by high-performance liquid chromatography coupled to tandem mass spectrometry analysis. The HPLC consisted of a Shimadzu Nexera HPLC System with a SIL-30AC autosampler, a LC-30AD pump, a CTO-20AC column oven, and a CBM-20A controller (Shimadzu). The reverse-phase chromatography of compounds was accomplished with a Brownlee SPP RP-Amide column with 4.6 × 100 mm inner dimensions, a particle size of 2.7 μm, and a preceding Phenomenex C-18 guard column. The mobile phase was composed of an organic additive with acetonitrile:methanol 6:1 (v/v) in total concentrations between 3% and 50% (v/v) and 0.1% (v/v) formic acid in the aqueous component of the eluent. During separation, the column oven was held at 40 °C and the mobile phase was maintained at a flow rate of 300 or 400 μl/min. After separation, the detection of substances was performed with an API 4000 tandem mass spectrometer (AB SCIEX, https://sciex.com/support/software-support/software-downloads), followed by quantification of results with the Analyst software (AB SCIEX, version 1.6.2). The composition of chromatographic conditions, as well as detailed mass spectrometric detection parameters, are listed in Table S5.
as §3

Another data set addresses T4, SLC35F5 (Homo sapiens, UniProt Q8WV83).
T4 sequence (Q8WV83 1-523): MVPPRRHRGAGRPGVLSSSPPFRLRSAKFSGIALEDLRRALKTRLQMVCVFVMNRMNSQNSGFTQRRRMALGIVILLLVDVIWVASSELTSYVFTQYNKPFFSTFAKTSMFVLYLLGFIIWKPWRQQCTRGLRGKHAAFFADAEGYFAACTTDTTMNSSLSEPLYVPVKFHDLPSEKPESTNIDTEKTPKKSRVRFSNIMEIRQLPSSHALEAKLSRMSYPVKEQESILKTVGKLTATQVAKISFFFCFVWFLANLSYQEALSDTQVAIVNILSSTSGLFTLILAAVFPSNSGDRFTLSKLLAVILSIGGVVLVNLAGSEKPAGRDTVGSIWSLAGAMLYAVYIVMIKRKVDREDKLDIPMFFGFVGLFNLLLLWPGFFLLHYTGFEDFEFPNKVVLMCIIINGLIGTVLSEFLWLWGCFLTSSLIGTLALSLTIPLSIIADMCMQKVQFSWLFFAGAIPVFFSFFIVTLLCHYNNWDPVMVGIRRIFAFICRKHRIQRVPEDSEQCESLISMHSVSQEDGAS
The data set is described as follows: Uptake ratio screen, SLC35F5-overexpressing HEK293 over empty vector cells. In kind it is cell-based. Details: by amplifying the entire gene-of-interest within the HEK293 genome via a long-range PCR. Particulars: 2.5 μM, 2 min. The procedure:
as §1, §2, §4, §3

T1 sequence (Q9BZV2 whole entry): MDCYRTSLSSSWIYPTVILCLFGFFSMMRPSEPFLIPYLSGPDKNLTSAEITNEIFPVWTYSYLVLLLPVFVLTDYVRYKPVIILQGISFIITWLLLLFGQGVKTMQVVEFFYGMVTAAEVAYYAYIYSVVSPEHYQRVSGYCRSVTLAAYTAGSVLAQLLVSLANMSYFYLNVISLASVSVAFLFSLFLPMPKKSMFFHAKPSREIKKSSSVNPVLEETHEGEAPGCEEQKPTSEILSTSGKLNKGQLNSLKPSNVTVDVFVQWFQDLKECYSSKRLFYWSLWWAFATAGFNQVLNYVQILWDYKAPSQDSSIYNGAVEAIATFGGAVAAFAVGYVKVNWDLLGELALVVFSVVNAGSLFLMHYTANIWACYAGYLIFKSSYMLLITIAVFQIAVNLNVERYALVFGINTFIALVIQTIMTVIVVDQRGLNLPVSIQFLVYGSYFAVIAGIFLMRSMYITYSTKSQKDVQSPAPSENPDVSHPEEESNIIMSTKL

On to `C[N+](C)(C)CCO` [Choline], for which the “Uptake by SLC19A3 (in words)” value at SLC19A3 is recorded as “transports”. The entries for the “Clint (±SEM)” value on SLC35F3, on SLC35F4 [1] and on SLC44A1 were 1.21 (±1.36) μl × mg protein^-1 × min^-1, 1.32 (±1.74) μl × mg protein^-1 × min^-1 and 2.08 (±1.79) μl × mg protein^-1 × min^-1, respectively. On SLC35E4, the “Uptake by SLC35E4 (in words)” value is recorded as “moderate influx transport activity”. For the same molecule, the “Uptake by SLC35F4 (in words)” value on SLC35F4 [2] is “enhanced cell uptake”. In addition, at SLC35F5, the “Uptake by SLC35F5 (in words)” value was “highest uptake rates”.

Source of the values: article PMC11406361, “Several orphan solute carriers functionally identified as organic cation transporters: Substrates specificity compared with known cation transporters” (The Journal of Biological Chemistry, 2024).
